Experimental data taken from patent publication US20210188856A1, “CRYSTAL FORM OF HYDROCHLORIDE OF PYRAZOLOHETEROARYL DERIVATIVE AND PREPARATION METHOD” (JIANGSU HENGRUI MEDICINE CO., LTD., priority 2018, published 2021).

Experiment: Influencing factors stability (heating, light illumination, high humidity; spread and uncovered, 20 days)
Assay type: physicochemical
Conditions: for Maximum single impurity / Purity / Total impurities: monohydrochloride
Method: Example 6: the crystal form I of the dihydrochloride salt of the compound represented by formula (I) (example 1) was spread and uncovered, and the steadily of the sample was evaluated under heating (40° C., 60° C.), light illumination (4500 Lux), and high humidity (RH 75%, RH 90%) with a period of 20 days.
Example 10: the crystal form A (example 7) of the monohydrochloride salt of the compound of formula (I) was spread and uncovered, and the stability of the sample was evaluated under heating (40° C., 60° C.), light illumination (4500 Lux), high humidity (RH 75%, RH 90%) conditions with a period of 20 days.
Example 11: the crystal form B of the monohydrochloride salt of the compound represented by formula (I) (example 8) was spread and uncovered, and the stability of the sample was evaluated under heating (40° C., 60° C.), light illumination (4500 Lux), high humidity (RH 75%, RH 90%) conditions with a period of 20 days.
Example 12: the crystal form C of the monohydrochloride salt of the compound represented by formula (I) (example 9) was spread and uncovered, and the stability of the sample was evaluated under heating (40° C., 60° C.), light illumination (4500 Lux), high humidity (RH 75%, RH 90%) conditions with a period of 20 days.

[1] = light illumination (4500 Lux), 4 days
[2] = light illumination (4500 Lux), 10 days
[3] = light illumination (4500 Lux), 20 days

## CCCCOc1nc(N)c2cnn(Cc3ccc(CN4CCCC4)cc3)c2n1.Cl [crystal form B, 6-butoxy-1-(4-(pyrrolidin-1-ylmethyl)benzyl)-1H-pyrazolo[3,4-d]pyrimidin-4-amine monohydrochloride]
0 day
  Maximum single impurity: 0.10%
  Purity: 99.54%
  Total impurities: 0.46%
40° C., 4 days
  Maximum single impurity: 0.19%
  Purity: 99.31%
  Total impurities: 0.69%
40° C., 10 days
  Maximum single impurity: 0.10%
  Purity: 99.53%
  Total impurities: 0.47%
40° C., 20 days
  Maximum single impurity: 0.14%
  Purity: 99.39%
  Total impurities: 0.61%
60° C., 4 days
  Maximum single impurity: 0.14%
  Purity: 99.34%
  Total impurities: 0.66%
60° C., 10 days
  Maximum single impurity: 0.10%
  Purity: 99.42%
  Total impurities: 0.58%
60° C., 20 days
  Maximum single impurity: 0.10%
  Purity: 99.21%
  Total impurities: 0.79%
75% RH, 4 days
  Maximum single impurity: 0.11%
  Purity: 99.54%
  Total impurities: 0.46%
75% RH, 10 days
  Maximum single impurity: 0.10%
  Purity: 99.61%
  Total impurities: 0.39%
75% RH, 20 days
  Maximum single impurity: 0.10%
  Purity: 99.57%
  Total impurities: 0.43%
90% RH, 4 days
  Maximum single impurity: 0.10%
  Purity: 99.54%
  Total impurities: 0.46%
90% RH, 10 days
  Maximum single impurity: 0.10%
  Purity: 99.61%
  Total impurities: 0.39%
90% RH, 20 days
  Maximum single impurity: 0.10%
  Purity: 99.59%
  Total impurities: 0.41%
[1]
  Maximum single impurity: 0.10%
  Purity: 99.51%
  Total impurities: 0.49%
[2]
  Maximum single impurity: 0.10%
  Purity: 99.56%
  Total impurities: 0.44%
[3]
  Maximum single impurity: 0.11%
  Purity: 99.45%
  Total impurities: 0.55%
Light illumination, 40° C., 60° C., 75% RH, 90% RH, 20 days
  stability under the influencing factor conditions (in words): good
